Like-named read-outs stand apart in the source and are kept apart here.
Tests used:
Format in all cases: cell-based
human GLP-2R = target: T1, human GLP-2R (Homo sapiens, UniProt O95838); assay: HitHunter cAMP assay in transiently transfected COS-7 cells, human GLP-2R; conditions: Emax normalized to highest concentration of endogenous ligand; Table 2;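 also: cells kept 30 min at 37 °C in buffer with 1 mM IBMX, then given ligand for another 30 min at 37 °C before cAMP readout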
T1 construct: host or cells: COS-7
T1 sequence (O95838 1-553): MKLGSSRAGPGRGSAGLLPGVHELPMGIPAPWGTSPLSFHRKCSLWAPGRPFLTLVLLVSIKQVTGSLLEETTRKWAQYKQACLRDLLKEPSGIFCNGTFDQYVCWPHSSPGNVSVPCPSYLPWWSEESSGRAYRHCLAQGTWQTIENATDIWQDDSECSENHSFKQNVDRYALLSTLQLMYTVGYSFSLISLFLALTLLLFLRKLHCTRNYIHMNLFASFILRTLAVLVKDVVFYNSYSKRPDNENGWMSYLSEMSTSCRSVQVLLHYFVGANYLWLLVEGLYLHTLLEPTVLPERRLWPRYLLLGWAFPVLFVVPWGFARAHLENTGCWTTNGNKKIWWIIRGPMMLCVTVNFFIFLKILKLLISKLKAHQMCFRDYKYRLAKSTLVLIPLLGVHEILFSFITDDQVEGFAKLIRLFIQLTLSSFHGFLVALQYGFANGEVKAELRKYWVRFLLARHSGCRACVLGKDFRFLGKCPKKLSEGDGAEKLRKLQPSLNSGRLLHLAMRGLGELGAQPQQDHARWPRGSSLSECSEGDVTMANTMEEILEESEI
Experimental: COS-7 cells were cultured at 10% CO2 and 37° C. in Dulbecco's Modified Eagle Medium (DMEM) 1885 supplemented with 10% fetal bovine serum (FBS), 2 mM glutamine, 180 units/ml penicillin, and 45 g/ml streptomycin.
The next day the assay was initiated by washing with HEPES buffered saline (HBS) and followed by an incubation step with assay buffer (HBS added 1 mM isobutyl-1-methylxanthine (IBMX)) for 30 min at 37° C. The ligands were then added and incubated for an additional 30 min at 37° C. After ligand incubation, the HitHunter® CAMP assay (Eurofins DiscoverX, Fremont, 150 USA) was carried out according to the manufacturer's instructions. Luminescence was measured by PerkinElmer™ EnVision 2014 Multilabel Reader (PerkinElmer, Waltham, MA). The potencies (EC50 values) were determined by nonlinear regression using GraphPad Prism 9 (San Diego, California, USA). Sigmoid curves were fitted logistically. The efficacies (Emax values) were determined by normalization to the highest concentration applied of the endogenous ligand for each receptor.

human GLP-1R = target: T2, human GLP-1R (Homo sapiens, UniProt P43220); assay: HitHunter cAMP assay in transiently transfected COS-7 cells, human GLP-1R; conditions: Emax normalized to highest concentration of endogenous ligand; Table 3
T2 construct: host or cells: COS-7
T2 sequence (P43220 24-463): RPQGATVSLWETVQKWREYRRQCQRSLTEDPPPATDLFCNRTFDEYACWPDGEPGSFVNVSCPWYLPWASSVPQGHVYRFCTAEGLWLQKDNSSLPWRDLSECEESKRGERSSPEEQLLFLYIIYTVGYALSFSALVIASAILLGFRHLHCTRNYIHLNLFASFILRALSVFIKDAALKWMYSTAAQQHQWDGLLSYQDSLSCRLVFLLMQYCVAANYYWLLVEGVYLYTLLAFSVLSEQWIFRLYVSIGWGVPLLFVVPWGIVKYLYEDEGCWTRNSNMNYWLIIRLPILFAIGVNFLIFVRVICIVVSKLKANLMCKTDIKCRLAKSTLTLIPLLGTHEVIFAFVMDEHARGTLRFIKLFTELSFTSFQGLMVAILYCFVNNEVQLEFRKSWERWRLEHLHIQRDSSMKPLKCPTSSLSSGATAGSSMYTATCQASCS
Experimental: (§1) The next day the assay was initiated by washing with HEPES buffered saline (HBS) and followed by an incubation step with assay buffer (HBS added 1 mM isobutyl-1-methylxanthine (IBMX)) for 30 min at 37° C. The ligands were then added and incubated for an additional 30 min at 37° C. After ligand incubation, the HitHunter® CAMP assay (Eurofins DiscoverX, Fremont, […] USA) was carried out according to the manufacturer's instructions. Luminescence was measured by PerkinElmer™ EnVision 2014 Multilabel Reader (PerkinElmer, Waltham, MA). The potencies (EC50 values) were determined by nonlinear regression using GraphPad Prism 9 (San Diego, California, USA). Sigmoid curves were fitted logistically. The efficacies (Emax values) were determined by normalization to the highest concentration applied of the endogenous ligand for each receptor.

rat GIPR = target: T3, rat GIPR (Rattus norvegicus, UniProt P43219); assay: HitHunter cAMP assay in transiently transfected COS-7 cells, rat GIPR; conditions: Emax normalized to highest concentration of endogenous ligand
T3 construct: expressed in transfected cells; host or cells: COS-7
T3 sequence (P43219 19-455): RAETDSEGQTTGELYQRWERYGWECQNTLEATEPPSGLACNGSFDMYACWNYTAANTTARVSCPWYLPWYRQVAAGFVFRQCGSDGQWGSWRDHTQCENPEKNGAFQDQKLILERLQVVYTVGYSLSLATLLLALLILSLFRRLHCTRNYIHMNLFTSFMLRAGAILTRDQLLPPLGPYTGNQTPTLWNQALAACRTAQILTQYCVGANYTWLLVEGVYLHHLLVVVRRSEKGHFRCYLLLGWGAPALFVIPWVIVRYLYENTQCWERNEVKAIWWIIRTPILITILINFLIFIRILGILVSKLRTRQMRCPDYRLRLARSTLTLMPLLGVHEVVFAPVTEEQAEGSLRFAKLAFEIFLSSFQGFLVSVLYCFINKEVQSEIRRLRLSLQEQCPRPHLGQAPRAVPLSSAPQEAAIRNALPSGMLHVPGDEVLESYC
Experimental: as §1

rat GLP-2R = target: T4, rat GLP-2R (Rattus norvegicus, UniProt Q9Z0W0); assay: HitHunter cAMP assay in transiently transfected COS-7 cells, rat GLP-2R; conditions: Emax normalized to highest concentration of endogenous ligand
T4 construct: expressed in transfected cells; host or cells: COS-7
T4 sequence (Q9Z0W0 1-550): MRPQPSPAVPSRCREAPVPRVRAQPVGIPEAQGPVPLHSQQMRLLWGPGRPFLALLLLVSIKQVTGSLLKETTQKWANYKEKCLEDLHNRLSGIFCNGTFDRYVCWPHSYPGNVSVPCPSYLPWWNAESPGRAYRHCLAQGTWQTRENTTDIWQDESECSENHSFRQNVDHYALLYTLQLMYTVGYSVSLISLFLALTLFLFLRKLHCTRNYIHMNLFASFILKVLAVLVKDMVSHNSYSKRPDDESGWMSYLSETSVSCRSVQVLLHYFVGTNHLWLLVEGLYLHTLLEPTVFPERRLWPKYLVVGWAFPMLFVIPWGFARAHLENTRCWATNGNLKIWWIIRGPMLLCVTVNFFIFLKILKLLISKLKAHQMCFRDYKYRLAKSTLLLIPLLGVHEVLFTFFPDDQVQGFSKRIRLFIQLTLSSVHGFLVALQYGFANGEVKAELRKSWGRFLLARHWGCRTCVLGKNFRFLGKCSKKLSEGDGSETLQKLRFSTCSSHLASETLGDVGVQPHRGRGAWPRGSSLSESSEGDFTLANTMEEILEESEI
Experimental: as §1

human GIPR [1] = target: T5, human GIPR (Homo sapiens, UniProt P48546); design: host or cells: COS-7; conditions: Emax normalized to highest concentration of endogenous ligand; Table 2
T5 sequence (P48546 22-466): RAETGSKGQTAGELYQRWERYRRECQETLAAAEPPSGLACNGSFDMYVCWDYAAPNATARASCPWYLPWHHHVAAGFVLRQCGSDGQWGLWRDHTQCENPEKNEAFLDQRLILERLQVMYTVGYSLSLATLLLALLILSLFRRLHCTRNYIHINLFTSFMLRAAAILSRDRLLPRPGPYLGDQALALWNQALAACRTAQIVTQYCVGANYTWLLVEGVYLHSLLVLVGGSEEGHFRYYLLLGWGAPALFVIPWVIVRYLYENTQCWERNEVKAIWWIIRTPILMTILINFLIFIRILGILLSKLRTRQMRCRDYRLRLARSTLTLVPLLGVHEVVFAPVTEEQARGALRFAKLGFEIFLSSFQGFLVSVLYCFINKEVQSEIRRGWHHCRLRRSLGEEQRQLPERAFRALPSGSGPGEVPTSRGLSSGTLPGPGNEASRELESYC

human SNAP-GIPR = target: T6, human SNAP-GIPR (Homo sapiens, UniProt P48546); design: AUC ± SD: unit not given beside the values; conditions: for Emax ± SD (%): NA = no activity
T6 construct: host or cells: HEK293A
T6 sequence (P48546 22-466): T5 sequence (P48546 22-466)

human GIPR [2] = target: T5, human GIPR; design: host or cells: HEK293; conditions: beta-arrestin 2 recruitment; for AUC ± SD: AUC of sigmoid curves up to 100 nM; for Emax ± SD (%): normalized to highest concentration of GIP, NA = no activity
Experimental: HEK293 cells were cultured at 10% CO2 and 37° C. in DMEM-GlutaMAX™-I supplemented with 10% FBS, 180 units/mL penicillin and 45 g/mL streptomycin. These cells were transfected using PEI for the beta-arrestin recruitment assay as described in detail in (van der Velden et al., 2021).
HEK293 cells were transiently transfected with human GIPR, the donor Rluc8-Arrestin-3-Sp1 (beta-arrestin 2 recruitment), the acceptor mem-linker-citrine-SH3, and the GPCR kinase 2 (GRK2). Two days following transfection, the cells were washed with PBS and resuspended in PBS with 5 mM glucose. Then, 85 μL of the cell suspension solution was added to each well of a white 96-well plate followed by the addition of PBS with 5 μM coelenterazine-h. Following 10 min incubation, increasing concentrations of ligands were added and incubated for an additional 30 min. Luminescence was measured with the Berthold Technologies Mithras Multilabel Reader (Rluc8 at 485±40 nm and YFP at 530±25 nm). The potencies (EC50 values) were determined by nonlinear regression using GraphPad Prism 9 (San Diego, California, USA). Sigmoid curves were fitted logistically. The efficacies (Emax values) were determined by normalization to the highest concentration applied of the endogenous ligand (GIP) for the GIPR.

macaque GIPR = assay: HitHunter cAMP assay in transiently transfected COS-7 cells, macaque GIPR
Experimental: as §1

Row | Substance | Efficacy GLP-2R (human GLP-2R) | Efficacy GLP-1R (human GLP-1R) | rGIPR Efficacy (%) (rat GIPR) | rGLP-2R Efficacy (%) (rat GLP-2R) | Efficacy GIPR (human GIPR [1]) | AUC ± SD (human SNAP-GIPR; GIPR internalization, AUC of sigmoid curves up to 1 μM) | Emax ± SD (%) (human SNAP-GIPR; GIPR internalization) | AUC ± SD (human SNAP-GIPR) | AUC ± SD (human GIPR [2]) | Emax ± SD (%) (human GIPR [2]) | maGIPR Efficacy (%) (macaque GIPR; Emax normalized to highest concentration of the endogenous ligand, COS-7 cells) | maGIPR pEC50 (macaque GIPR; cAMP, transiently transfected COS-7 cells)
1 | (C10)H-Aib-DGTFISDYST-Aib-LDNLAARDFINWLIQTKITK-OH [Compound no. 44] | 100 | 19 | 87.3% | 90.0% | 110 |  |  |  |  |  |  | 
2 | (C16)HADGTFISDYSTAibLDNLAARDFINWLIQTKITKNDWKHNITQ [Compound no. 53] | 79 |  | 77.3% | 18.0% | 90 |  |  |  |  |  |  | 
3 | Ac-H-Aib-DGTFISDYS-K(γGlu-C16)-Aib-LDNLAARDFINWLIQTKITK-OH [Compound no. 36] | 76 | 19 |  |  | 92 | 47 ± 1 | 58 ± 8% |  |  |  |  | 
4 | H-Aib-DG-K(γGlu-C10)-FISDYST-Aib-LDNLAARDFINWLIQTKITK-OH [Compound no. 24] | 90 |  | 96.3% | 76.3% | 113 |  | 68 ± 3% | 113 ± 4 | 117 ± 31 | 57 ± 16% |  | 
5 | H-Aib-DG-K(γGlu-C16 diacid)-FISDYST-Aib-LDNLAARDFINWLIQTKITK-OH [Compound no. 25] | 88 |  | 71.7% | 65.0% | 93 |  | 46 ± 2% | 57 ± 2 | 42 ± 15 | 23 ± 7% |  | 
6 | H-Aib-DG-K(γGlu-C16)-FISDYSTILDNLAARDFINWLIQTKITK-OH [Compound no. 9] | 91 | 32 | 74.3% | 82.0% | 110 |  |  |  |  |  |  | 
7 | H-Aib-DGTFISDY-K(yglu-C10)-T-Aib-LDNLAARDFINWLIQTKITGNDWKHNITQ-OH [Compound no. 54] | 87 | 8 | 110.3% | 108.0% | 86 |  |  |  |  |  | 71.8% | 7.7
8 | H-Aib-DGTFISDY-K(γGlu-C10)-TILDKLAARDFIEWLIATKITK-OH [Compound no. 31] | 90 | 6 | 85.0% | 86.3% | 89 |  |  | 0 | 0 |  |  | 
9 | H-Aib-DGTFISDY-K(γGlu-C16)-T-Aib-LDALAARDFIEWLIQTKITK-OH [Compound no. 33] | 97 |  | 98.7% | 96.3% | 101 |  | 25 ± 3% | 27 ± 2 | 23 ± 12 | 9 ± 5% |  | 
10 | H-Aib-DGTFISDY-K(γGlu-C16)-TAib-LDNLAARDFINWLIQTKITKNDWKHNITQ-OH [Compound no. 37] | 97 |  | 91.0% | 83.3% |  |  | 24 ± 5% | 15 ± 4 | 0 | 15 ± 41% |  | 
11 | H-Aib-DGTFISDY-K(γGlu-C16)-TILDNLAARDFINWLIQTKGKKNDWKHNITQ-NH2 [Compound no. 14] | 114 | 0 | 98.3% | 93.3% | 101 |  |  |  |  |  |  | 
12 | H-Aib-DGTFISDYS-K(γGlu-C16)-Aib-LDNLAARDFINWLIQTKITK-OH [Compound no. 35] | 88 | 31 | 86.3% | 87.3% | 106 |  |  |  | 58 ± 14 | 34 ± 7% |  | 
13 | H-Aib-DGTFISDYSTIL-K(γGlu-C16)-NLAARDFINWLIQTKITK-OH [Compound no. 13] | 95 | 4 | 69.7% | 83.7% | 95 |  |  |  |  |  |  | 
14 | H-Aib-EG-K(γGlu-C16)-FISDYST-Aib-LDNLAARDFINWLIQTKITK-OH [Compound no. 27] | 108 | 0 |  |  | 98 |  |  |  |  |  |  | 

From patent US20250304643A1, “PEPTIDE DUAL AGONISTS OF GIPR AND GLP2R” (BAINAN BIOTECH APS, priority 2021, published 2025)
